The data set is described as follows: Binding energy by using the equation deltaG obsd = -RT ln KD. The format is ADME.
In the case of `CCC1(CC)C(=O)NC(=O)N(C)C1=O` [METHARBITAL], the Binding energy came to 6.8 kcal/mol.

Take `CC(CN1CCOCC1)C(C(=O)N1CCCC1)(c1ccccc1)c1ccccc1` (stereo not drawn) [RACEMORAMIDE]: the Binding energy was found to be 12.3 kcal/mol.

Regarding `O=P(O)(O)OC[C@H]1OC(O)(COP(=O)(O)O)[C@@H](O)[C@@H]1O` (some centres not stated) [FOSFRUCTOSE], the Binding energy was 10.2 kcal/mol.

Consider `O=C1CCN([C@H]2C[C@H](O)[C@@H](COP(=O)(O)O)O2)C(=O)N1`, for which the Binding energy turned out to be 10.9 kcal/mol.

`O=C(O)Cc1ccccc1Nc1c(Cl)cccc1Cl` [DICLOFENAC] yielded a Binding energy of 9.6 kcal/mol.

Compound `O=C1NC(=O)C(c2ccccc2)(c2ccccc2)N1` [PHENYTOIN] registered a Binding energy of 11.2 kcal/mol.

`CN1C(=O)CN=C(c2ccccc2)c2cc(Cl)ccc21` [DIAZEPAM]: the Binding energy was found to be 11.5 kcal/mol.

In turn, `CN1CCN(C2=Nc3cc(Cl)ccc3Nc3ccccc32)CC1` [CLOZAPINE] yielded a Binding energy of 12.3 kcal/mol.

`Cc1c(Cc2ccc(Cl)cc2)cnc2nc(N)nc(N)c12` gave a Binding energy of 13.2 kcal/mol.

As for `C[C@]12C[C@H](O)[C@H]3[C@@H](CCC4=CC(=O)CC[C@@]43C)[C@@H]1CC[C@@H]2C(=O)CO` [CORTICOSTERONE], the Binding energy was 11.6 kcal/mol.

In turn, `CC(=O)OCC[N+](C)(C)C` [ACETYLCHOLINE] returned a Binding energy of 11.1 kcal/mol.

`O=C(NO)C(O)P(=O)(O)O` (configuration not stated) returned a Binding energy of 10.9 kcal/mol.

As to `CC[C@@H](CO)NC(=O)[C@@H]1C=C2c3cccc4c3c(cn4C)C[C@H]2N(C)C1` [METHYSERGIDE], the Binding energy is 12.3 kcal/mol.

`O=C(O)CCc1ccccc1` [PHENYL PROPIONIC ACID] registered a Binding energy of 5.5 kcal/mol.

The compound `NC(=O)N1c2ccccc2C=Cc2ccccc21` [CARBAMAZEPINE] had a Binding energy of 5.9 kcal/mol.

The compound `O=C1CN=C(c2ccccn2)c2cc(Br)ccc2N1` [BROMAZEPAM] returned a Binding energy of 10.3 kcal/mol.

Consider `O=c1[nH]c2ccccc2n1C1CCN(CCCC(c2ccc(F)cc2)c2ccc(F)cc2)CC1` [PIMOZIDE], for which the Binding energy was 12.8 kcal/mol.

`CC(=O)[C@H]1CC[C@H]2[C@@H]3CCC4=CC(=O)CC[C@]4(C)[C@H]3CC[C@]12C` [PROGESTERONE] registered a Binding energy of 10.5 kcal/mol.

Turning to `CCCCCc1ccc2nc(N)nc(N)c2c1C`, the Binding energy stood at 18.7 kcal/mol.

The compound `CN1CCc2cccc3c2[C@H]1Cc1ccc(O)c(O)c1-3` [APOMORPHINE] showed a Binding energy of 11.9 kcal/mol.

For the compound `C=C(C)[C@@H]1[C@H]2OC(=O)[C@@H]1[C@]1(O)[C@H]3O[C@H]3[C@]3(CO3)[C@]1(C)[C@@H]2O`, the Binding energy came out at 8.8 kcal/mol.

For `Oc1ccccc1` [PHENOL], the Binding energy came out at 2.7 kcal/mol.

`O=C(O)Cc1ccccc1Oc1ccc(Cl)c(O)c1Cl`: the Binding energy was 8.7 kcal/mol.

Regarding `CCCCC[C@H](O)/C=C/[C@H]1[C@H](O)CC(=O)[C@@H]1CCCCCCC(=O)O` [ALPROSTADIL], the Binding energy was 11.2 kcal/mol.

For `c1ccc2c(CC3=NCCN3)cccc2c1` [NAPHAZOLINE], the Binding energy was 11.9 kcal/mol.

With `O=C(O)COP(=O)(O)O` [PHOSPHOGLYCOLIC ACID], the Binding energy worked out at 8.7 kcal/mol.

Consider `CC(=O)CC(c1ccccc1)c1c(O)c2ccccc2oc1=O` (configuration not stated) [WARFARIN], for which the Binding energy came out at 6.9 kcal/mol.

The compound `C[N+](C)(C)C` [TETRAMETHYLAMMONIUM ION] registered a Binding energy of 3.6 kcal/mol.

Take `CN1C[C@H](CNC(=O)OCc2ccccc2)C[C@@H]2c3cccc4c3c(cn4C)C[C@H]21` [METERGOLINE]: the Binding energy stood at 13 kcal/mol.

`O=C(O)c1ccc(C(=O)O)c(C(=O)O)c1`: the Binding energy came to 5.2 kcal/mol.

Turning to `C[C@]12CCC(=O)C[C@@H]1CC[C@@H]1[C@@H]2CC[C@]2(C)[C@@H](O)CC[C@@H]12` (stereo in doubt; 155) [STANOLONE], the Binding energy amounted to 13.1 kcal/mol.

`CN1CCC(=C2c3ccccc3C=Cc3ccccc32)CC1` [CYPROHEPTADINE] yielded a Binding energy of 12.8 kcal/mol.

Consider `CCC(=O)C1(c2cccc(O)c2)CCN(C)CC1` [KETOBEMIDONE], for which the Binding energy worked out at 10.8 kcal/mol.

`CCCCC1C(=O)N(c2ccccc2)N(c2ccccc2)C1=O` [PHENYLBUTAZONE]: the Binding energy is 7.3 kcal/mol.

Regarding `N[C@@H](Cc1cc(I)c(Oc2cc(I)c(O)c(I)c2)c(I)c1)C(=O)O` [LEVOTHYROXINE], the Binding energy came out at 10.3 kcal/mol.

Regarding `OC[C@H]1O[C@@H](n2cnc3c2N=CNC[C@H]3O)[C@H](O)[C@@H]1O` [COFORMYCIN], the Binding energy is 15 kcal/mol.

Regarding `C=C(C)[C@@H]1[C@H]2OC(=O)[C@@H]1[C@]1(O)C[C@H]3O[C@]34C(=O)O[C@H]2[C@]14C` [PICROTOXININ], the Binding energy was 8.7 kcal/mol.

In turn, `CN(C)CCC=C1c2ccccc2COc2ccccc21` [DOXEPIN] registered a Binding energy of 13.1 kcal/mol.

Take `O=C1Nc2ccc(Cl)cc2C(c2ccccc2Cl)=NC1O` (configuration not stated) [LORAZEPAM]: the Binding energy came out at 11.6 kcal/mol.

Compound `O=C(CCCN1CCC2(CC1)C(=O)NCN2c1ccccc1)c1ccc(F)cc1` [SPIPERONE] came in with a Binding energy of 14 kcal/mol.

Regarding `CC/C(=C(\c1ccccc1)c1ccc(OCCN(C)C)cc1)c1ccccc1` [TAMOXIFEN], the Binding energy was 12.3 kcal/mol.

For the compound `CC(C)Cc1cnc2nc(N)nc(N)c2n1`, the Binding energy turned out to be 12.3 kcal/mol.

In the case of `CN(Cc1cnc2nc(N)nc(N)c2n1)c1ccc(C(=O)N[C@@H](CCC(=O)O)C(=O)O)cc1` [METHOTREXATE], the Binding energy amounted to 12.9 kcal/mol.

The compound `O=P(O)(O)C#CCCO` showed a Binding energy of 3.4 kcal/mol.

With `CNCCCN1c2ccccc2CCc2ccccc21` [DESIPRAMINE], the Binding energy amounted to 12.2 kcal/mol.

Take `OC[C@H]1OC(O)[C@H](O)[C@@H](O)[C@@H]1O` (some centres not stated) [DEXTROSE]: the Binding energy came out at 8.7 kcal/mol.

Regarding `COc1cc2nc(N3CCN(C(=O)c4ccco4)CC3)nc(N)c2cc1OC` [PRAZOSIN], the Binding energy was 13.1 kcal/mol.

Compound `COc1ccc(CCN2CCC(Nc3nc4ccccc4n3Cc3ccc(F)cc3)CC2)cc1` [ASTEMIZOLE] returned a Binding energy of 11.3 kcal/mol.

As for `CC(=O)OC(Cc1ccc(C=O)cc1)c1ccc(C=O)cc1` (configuration not stated), the Binding energy is 6.4 kcal/mol.

On to `CN1CCC[C@H]1c1cccnc1` [NICOTINE], for which the Binding energy amounted to 11.2 kcal/mol.

Take `CN(C)CCCN1c2ccccc2Sc2ccc(Cl)cc21` [CHLORPROMAZINE]: the Binding energy was determined as 12.3 kcal/mol.

`CCC1(CC=C2CCCCC2)C(=O)NC(=O)NC1=O` showed a Binding energy of 8.4 kcal/mol.

Compound `COc1ccc2cc([C@H](C)C(=O)O)ccc2c1` [NAPROXEN] returned a Binding energy of 8.5 kcal/mol.

`Nc1ccn([C@@H]2O[C@H](COP(=O)(O)O)[C@@H](O)[C@H]2O)c(=O)n1` displayed a Binding energy of 5.9 kcal/mol.

Take `CC(Cc1ccccc1)NCCC(c1ccccc1)c1ccccc1` (configuration not stated) [PRENYLAMINE]: the Binding energy amounted to 8.2 kcal/mol.

`O=C(CCCN1CCC(n2c(O)nc3ccccc32)CC1)c1ccc(F)cc1` [BENPERIDOL] gave a Binding energy of 12.2 kcal/mol.

For `Cc1ccc(/C(=C\CN2CCCC2)c2ccccn2)cc1` [TRIPROLIDINE], the Binding energy is 13.6 kcal/mol.

(Values after ChEMBL document CHEMBL1122538, “Functional group contributions to drug-receptor interactions” (J Med Chem, 1984).)
